Measured values published in US20130065868A1, “ANXIOYTIC MARCGRAVIACEAE COMPOSITIONS CONTAINING BETULINIC ACID, BETULINIC ACID DERIVATIVES, AND METHODS” (UNIVERSITY OF OTTAWA, priority 2002, published 2013).

Tests used:
COMT = COMT (Homo sapiens, UniProt P21964); test: MDS Panlabs screen: COMT; assay type: biochemical; conditions: Catecholamines
Experimental: (§1) Tests were conducted by MDS Panlabs to determine whether any of the classical neurotransmitter systems or the peptidergic systems thought to play a role in anxiety are affected by betulinic acid.

GABA C1-channel = test: MDS Panlabs screen: GABA channel; assay type: binding; conditions: Gabaergic
Experimental: as §1

Sprague-Dawley rats = test: Rat social interaction paradigm; assay type: in vivo; conditions: 0.5 mg/kg i.p.
Source text: The rat social interaction paradigm takes advantage of rats' natural behaviour in novel situations. The more ‘anxious’ the animals are, the less likely they are engage in social interaction with the cohort. Anxiolytic drugs typically increase the amount of time rodents spend socially interacting with one another. (Pile, S. E., (1980). The use of social interaction as a method for detecting anxiolytic activity of chlor-diazepoxide-like drugs. In Current Protocols in Neuroscience (pp. 8.3.3-8.3.4), John-Wiley & Sons).
The social-interaction (SI) test arena constituted of a 60×60 cm white Plexiglas floor, enclosed by 35-cm high walls of the same material. The arena was surrounded by black curtain, and a closed circuit camera was positioned above the setup, to feed live video signals to the experimenter seated in a separate room, for behavioral assessment and recording.
Each rat was placed alone in the SI box for 7.5 min daily for 2 days, in order to familiarize the animals with the test environment. Animals were paired according to their body weights (less than 10 g difference) and each pair was randomly assigned to one of the treatment groups. Rats received either betulinic acid 0.5 mg/kg i.p., betulinic acid methyl ester (methyl betulinate) 0.5 mg/kg i.p., or peanut oil only (control). Drugs were injected (i.p.) 60 min prior to testing. Tests were carried out at three intervals, 1 h, 2.5 h and 4 h after injection. Each pair was tested at the 1-h interval, then new pairs from within the same drug group were formed for the 2.5-h interval and then again at the 4-h interval (new pairs were formed for each test interval, to control for the potential confounding effect partner familiarity). […] The behaviors scored included the amount of time the pairs spent interacting together (sniffing, grooming and chasing) as well as the number of times the animals initiated contact.

adrenergic α2 = test: MDS Panlabs screen: adrenergic α2; assay type: binding; conditions: Catecholamines
Experimental: as §1

somatostatin = test: MDS Panlabs screen: somatostatin; assay type: binding; conditions: Peptides
Experimental: as §1

Glutamate non-selective = test: MDS Panlabs screen: Glutamate non-selective; assay type: binding; conditions: Gabaergic
Experimental: as §1

bombesin = test: MDS Panlabs screen: bombesin; assay type: binding; conditions: Peptides
Experimental: as §1

galanin GalR1 = galanin GalR1 (Homo sapiens, UniProt P47211); test: MDS Panlabs screen: galanin GalR1; assay type: binding; conditions: Peptides
Sequence of galanin GalR1 (P47211 whole entry): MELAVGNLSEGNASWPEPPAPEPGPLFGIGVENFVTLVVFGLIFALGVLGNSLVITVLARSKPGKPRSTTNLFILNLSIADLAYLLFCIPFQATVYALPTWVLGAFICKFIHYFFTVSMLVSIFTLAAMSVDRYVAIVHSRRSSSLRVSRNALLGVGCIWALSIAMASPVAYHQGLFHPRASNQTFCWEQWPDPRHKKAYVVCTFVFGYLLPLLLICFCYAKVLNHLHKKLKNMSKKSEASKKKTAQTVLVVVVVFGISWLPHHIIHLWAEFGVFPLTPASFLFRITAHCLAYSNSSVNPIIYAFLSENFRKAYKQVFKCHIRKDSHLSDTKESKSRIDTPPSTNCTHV
Experimental: as §1

opiate non-selective = test: MDS Panlabs screen: opiate non-selective; assay type: binding; conditions: Peptides
Experimental: as §1

tachykinin NK1 = tachykinin NK1 (Homo sapiens, UniProt P25103); test: MDS Panlabs screen: tachykinin NK1; assay type: binding; conditions: Peptides
Sequence of tachykinin NK1 (P25103 whole entry): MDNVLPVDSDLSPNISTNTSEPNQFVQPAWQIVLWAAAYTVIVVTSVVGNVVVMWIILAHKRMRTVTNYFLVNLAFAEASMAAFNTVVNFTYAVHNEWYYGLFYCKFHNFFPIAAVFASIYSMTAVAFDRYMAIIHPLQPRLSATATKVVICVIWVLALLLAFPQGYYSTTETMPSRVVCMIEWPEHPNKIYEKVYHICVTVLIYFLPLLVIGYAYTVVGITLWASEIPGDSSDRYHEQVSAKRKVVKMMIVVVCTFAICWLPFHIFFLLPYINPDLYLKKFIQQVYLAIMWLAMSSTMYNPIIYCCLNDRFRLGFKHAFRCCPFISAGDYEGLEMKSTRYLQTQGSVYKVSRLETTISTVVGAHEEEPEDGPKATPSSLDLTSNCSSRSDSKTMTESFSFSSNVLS
Experimental: as §1

domaine D1 = domaine D1 (Homo sapiens, UniProt P21728); test: MDS Panlabs screen: D1; assay type: binding; conditions: Catecholamines
Sequence of domaine D1 (P21728 whole entry): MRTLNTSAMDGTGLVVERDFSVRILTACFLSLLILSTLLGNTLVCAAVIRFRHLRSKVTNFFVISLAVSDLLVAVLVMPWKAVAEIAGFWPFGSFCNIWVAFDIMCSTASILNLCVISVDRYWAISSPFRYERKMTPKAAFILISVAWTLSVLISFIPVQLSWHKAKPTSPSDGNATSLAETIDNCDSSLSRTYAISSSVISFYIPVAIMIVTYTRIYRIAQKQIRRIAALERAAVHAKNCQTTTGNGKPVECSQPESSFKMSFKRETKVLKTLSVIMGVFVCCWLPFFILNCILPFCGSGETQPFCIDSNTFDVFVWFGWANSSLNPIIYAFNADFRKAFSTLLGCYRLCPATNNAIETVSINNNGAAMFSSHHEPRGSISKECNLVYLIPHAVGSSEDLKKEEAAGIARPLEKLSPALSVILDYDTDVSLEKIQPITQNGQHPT
Experimental: as §1

[1] = Acute or chronic toxicity at repeated doses; assay type: in vivo; conditions: 500 mg/kg vs anxiolytic dose
Source text: This is a dose 1000 times higher than that needed to reduce anxiety.

neurotensin = test: MDS Panlabs screen: neurotensin; assay type: binding; conditions: Peptides
Experimental: as §1

[2] = general description of the substance; cited from earlier work
serotonin transporter = serotonin transporter (Homo sapiens, UniProt P31645); test: MDS Panlabs screen: serotonin transporter; assay type: binding; conditions: Serotonin (5-HT)
Sequence of serotonin transporter (P31645 whole entry): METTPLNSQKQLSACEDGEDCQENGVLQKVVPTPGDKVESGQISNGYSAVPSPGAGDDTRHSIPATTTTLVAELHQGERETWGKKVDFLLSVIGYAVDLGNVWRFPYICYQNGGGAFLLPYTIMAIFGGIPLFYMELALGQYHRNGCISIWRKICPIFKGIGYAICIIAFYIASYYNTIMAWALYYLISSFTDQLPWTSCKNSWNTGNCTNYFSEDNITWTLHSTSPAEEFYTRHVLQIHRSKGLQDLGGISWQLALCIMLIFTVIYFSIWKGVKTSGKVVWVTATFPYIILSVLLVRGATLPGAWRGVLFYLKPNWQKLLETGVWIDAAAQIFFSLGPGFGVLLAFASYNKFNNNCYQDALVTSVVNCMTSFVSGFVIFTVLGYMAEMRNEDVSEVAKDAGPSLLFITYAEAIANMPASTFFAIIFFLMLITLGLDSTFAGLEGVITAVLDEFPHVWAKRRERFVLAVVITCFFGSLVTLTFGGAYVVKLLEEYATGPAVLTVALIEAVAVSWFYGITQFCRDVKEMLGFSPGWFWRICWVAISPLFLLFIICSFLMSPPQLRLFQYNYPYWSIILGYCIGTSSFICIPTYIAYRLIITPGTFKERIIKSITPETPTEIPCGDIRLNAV
Experimental: as §1

cannabinoid CB2 = cannabinoid CB2 (Homo sapiens, UniProt P34972); test: MDS Panlabs screen: cannabinoid CB2; assay type: binding; conditions: Peptides
Sequence of cannabinoid CB2 (P34972 whole entry): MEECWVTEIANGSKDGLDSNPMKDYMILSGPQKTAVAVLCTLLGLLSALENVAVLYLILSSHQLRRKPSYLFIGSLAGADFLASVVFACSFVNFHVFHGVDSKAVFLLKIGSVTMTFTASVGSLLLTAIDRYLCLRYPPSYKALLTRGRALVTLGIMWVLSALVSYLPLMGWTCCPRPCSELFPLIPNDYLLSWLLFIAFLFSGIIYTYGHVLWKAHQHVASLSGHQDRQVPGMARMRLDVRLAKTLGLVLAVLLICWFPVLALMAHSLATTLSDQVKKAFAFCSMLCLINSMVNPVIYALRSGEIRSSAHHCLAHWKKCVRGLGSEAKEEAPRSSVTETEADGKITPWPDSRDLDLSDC
Experimental: as §1

Sequence of COMT (P21964 whole entry, species assumed): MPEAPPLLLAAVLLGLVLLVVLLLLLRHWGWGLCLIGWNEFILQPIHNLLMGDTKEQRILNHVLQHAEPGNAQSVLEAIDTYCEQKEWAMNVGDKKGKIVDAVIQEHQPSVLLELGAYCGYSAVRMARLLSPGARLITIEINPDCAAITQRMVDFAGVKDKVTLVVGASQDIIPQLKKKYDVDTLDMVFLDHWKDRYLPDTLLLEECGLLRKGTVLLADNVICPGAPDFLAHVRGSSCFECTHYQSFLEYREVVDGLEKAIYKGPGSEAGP

C=C(C)[C@@H]1CC[C@]2(C(=O)O)CC[C@]3(C)C(CC[C@@H]4[C@@]5(C)CC[C@H](O)C(C)(C)[C@@H]5CC[C@]43C)[C@@H]12 (some centres unmarked) [betulinic acid, Betulinic acid]
affected by betulinic acid (COMT): none of the following neurotransmitters or proteins were affected
affected by betulinic acid (GABA C1-channel): none of the following neurotransmitters or proteins were affected
frequency of initiated contact (Sprague-Dawley rats): not significant
amount of social interaction (interaction time) compared to the control group (Sprague-Dawley rats; data collapsed across 1 h, 2.5 h and 4 h (FIG. 8)): significantly increased the amount of social interaction
affected by betulinic acid (adrenergic α2): none of the following neurotransmitters or proteins were affected
affected by betulinic acid (somatostatin): none of the following neurotransmitters or proteins were affected
affected by betulinic acid (Glutamate non-selective): none of the following neurotransmitters or proteins were affected
affected by betulinic acid (bombesin): none of the following neurotransmitters or proteins were affected
affected by betulinic acid (galanin GalR1): none of the following neurotransmitters or proteins were affected
affected by betulinic acid (opiate non-selective): none of the following neurotransmitters or proteins were affected
affected by betulinic acid (tachykinin NK1): none of the following neurotransmitters or proteins were affected
affected by betulinic acid (domaine D1): none of the following neurotransmitters or proteins were affected
non-toxic dose relative to the dose needed to reduce anxiety [1]: 1000 times
affected by betulinic acid (neurotensin): none of the following neurotransmitters or proteins were affected
solubility (solvents) [2]: soluble in water, ethanol, ether, acetone, benzene, and chloroform
affected by betulinic acid (serotonin transporter): none of the following neurotransmitters or proteins were affected
affected by betulinic acid (cannabinoid CB2): none of the following neurotransmitters or proteins were affected
